The values below come from patent publication US7786097B2, “Tricyclic compounds, compositions and methods” (Pfizer Inc., priority 2007, dated 2010).

Data set [1] concerns Cortical bone formation rate (BFR). The data set can be described thus: Cortical bone histomorphometry, bone formation rate (BFR). It is filed as in vivo. As to conditions: AUC 0-4 hr, mice. How it is done:
During the in-life portion of each study, mice received two intraperitoneal (i.p.) injections (20 mg/kg, […]) of calcein (C-0875; Sigma-Aldrich, St. Louis, Mo.) on days 1 and 26 for bone histomorphometry measurements. Calcein incorporates into the bone mineral and allows measurement of bone formation rate. Calcein was dissolved in 2% sodium bicarbonate. During the tissue harvest, the left tibiae were excised and cleaned for cortical histomorphometry measurements. After all skin and muscle were removed, tibiae were placed in 70% ethanol 4° C.) in the dark for a minimum of 24 hours.
Ground transverse sections were used for histomorphometric analysis of cortical bone. Bones were sectioned using a low-speed saw (Isomet, Buehler, Lake Bluff, Ill.) equipped with a diamond wafer blade. The end of each tibia was removed proximal to tibia-fibula synostosis and a […] cross-section was cut. Using a roughened glass plate and a cork, sections were ground to […] until transparent and all labels were distinguishable under a fluorescent microscope. Sections were dehydrated using the following solutions for a minimum of two minutes each: 1) 70% ethanol, 2) 95% ethanol, 3) 100% ethanol, 4) 50/50 ethanol/xylene, and 5) xylene (twice) (#534056; Sigma-Aldrich, St. Louis, Mo.). Sections were mounted using Eukitt Quick Mounting Medium (#03989, Sigma-Aldrich, St. Louis, Mo.) after which coverslip was applied. Using the Osteomeasure Bone Analysis Program (Osteometrics, Inc., Decatur, Ga.), bone formation rate was calculated by tracing the 1st and […] fluorescent labels and the inner and outer perimeter of the bone. Bone formation rate was calculated by the following equation: (Inter-label width/Label interval)*(Labeled perimeter/Bone perimeter). At least five samples were measured from each treatment group in each study.

The subject of data set [2] is Mouse Collagen-Induced Arthritis (mCIA). The data set can be described thus: Therapeutic mouse collagen-induced arthritis (mCIA) model. As to conditions: mice, dosing day 34 through day 49. It counts as in vivo, Male DBA/J mice. The text has this: Mouse Collagen-induced arthritis is a commonly used chronic, preclinical model of rheumatoid arthritis in which joint swelling and bone destruction occur following immunization with type II collagen. Reduction of disease incidence and severity has been shown previously to be predictive of disease-modification and signs and symptoms mitigation, respectively, in a clinical setting.
In the therapeutic mCIA model, induction of disease incidence and severity was synchronized via LPS stimulation. Male DBA/J mice were immunized with 100 ug of bovine type II collagen (bCII) on day 0. All mice received an intraperitoneal injection of 20 μg of LPS on day 28 and disease was allowed to develop through day 34. At day 34, all mice had disease (incidence=100%) with an average severity score of seven. Dosing of compounds was initiated in the therapeutic mode on day 34 and continued through day 49. Different treatments were compared by measuring the decrease in incidence (i.e., resolution of disease) and the decrease in severity of paw swelling over time.

Data set [3] concerns Serum osteocalcin. The data set can be described thus: Serum osteocalcin suppression, 28-day repeat dose mouse model. It counts as in vivo, Swiss Webster female mice. As to conditions: mice. The procedure:
(§1) The compounds were weighed and suspended in a vehicle of 0.5% methylcellulose/0.025% tween 20 (Sigma-Aldrich, St. Louis, Mo.). Compound suspensions were homogenized using a Polytron PT-3100 tissue homogenizer to create a very fine suspension and were then sonicated for 10 minutes using a water bath sonicator. Aliquots of each suspension were made for daily dosing at 0.2 ml/dose. Swiss Webster female mice, 10-12 weeks old, 28-29 grams, (Taconic, Germantown, N.Y.) were used in accordance with the guidelines of the Institutional Animal Care and Use Committee and in accordance with NIH guidelines on laboratory animal welfare. Mice were acclimated in the Pfizer animal facility for three to seven days prior to being utilized in a study. […] Each treatment group contained 5-10 mice. To establish a dosing regimen for the studies, a pilot pharmacodynamic time course experiment was conducted to quantify TNFα repression after a single ED80 dose.
(§2) Body weights were measured on the first and last day of each experiment. Blood samples were obtained after three weeks of dosing for a steady-state pharmacokinetic (PK) analysis. To assess compound effects on LPS-induced TNFα, all mice received an intraperitoneal injection of LPS (Salmonella typhosa, L-7895; Sigma-Aldrich, St. Louis) 2.5 hr after the last dose on day 28. Mice were sacrificed 90 minutes after LPS administration. Serum samples were quantified for osteocalcin and TNFα using the multiplex assays (Linco Research, Inc, St. Charles, Mo.; Luminex 100, Austin, Tex.). Samples were diluted 1:20 and the assay was run according to manufacturer's instructions. The osteocalcin standard was purchased separately (Biomedical Technologies Inc., Stoughton, Mass.). Mice were fasted for 4 hours before serum was collected for TNFα, and osteocalcin levels. For each experiment, outliers were detected by calculating the number of standard deviations from the mean of the group. If the value being examined was more than 2.5 standard deviations from the mean, it was excluded from the rest of the calculations.
(§3) The individual mouse percent inhibition values were fit to a four-parameter logistic model using the dose mean for each group.
(§4) ED50 and ED80 values were obtained for the various endpoints using a four-parameter logistic fit. For compounds which were tested multiple times, ED50 and ED80 values were obtained using four-parameter logistic fits of the combined data from multiple experiments.

Data set [4] relates to LPS-induced serum TNFα. Kind of data set: LPS-induced serum TNFα suppression, 28-day repeat dose mouse model. It counts as in vivo, Swiss Webster female mice. As to conditions: mice, oral gavage 28 days. The procedure:
as §1, §2, §3, §4

Take `C[C@]12C=CC(=O)C=C1CC[C@@H]1[C@@H]2[C@@H](O)C[C@@]2(C)[C@H]1CC[C@]2(O)C(=O)CO` [Prednisolone]: in data set [1], the “Cortical bone formation rate (BFR) EAUC50” value stood at 90 ng·h/mL and the “Cortical bone formation rate (BFR) EAUC80” value is 600 ng·h/mL. Moreover, the “Therapeutic mCIA (ED80 dose)” value in data set [2] stood at 5.5 mg/kg. Besides, in data set [3] (AUC 0-4 hr), the “Serum osteocalcin EAUC50” value is 560 ng·h/mL and the “Serum osteocalcin EAUC80” value stood at 1600 ng·h/mL. Besides, the “Osteocalcin Suppression (ED80 dose)” value in data set [3] (oral gavage 28 days, serum osteocalcin) is 6.80 mg/kg. The “TNFα Suppression (ED80 dose)” value in data set [4] came out at 2.10 mg/kg.
